Like-named read-outs stand apart in the source and are kept apart here.
Columns and labels:
Assay type in all cases: cell-based
[1] = system: GSC-3 (3#-GSC); experiment: MTS cell viability assay, glioblastoma stem cells GSC-3 (3#-GSC); settings: for selective anti-glioma stem cell viability: judged in words from preliminary viability screening against 3#-GSC, 293T and U251
Method: (§1) Primary viability screening: (1) the synthesized compounds 3a to 13d were respectively dissolved in DMSO to prepare a 40 μg/mL cannabicyclol and cannabicyclol derivative solutions.
(§2) (2) A control group: a 200 μL DMSO solvent.
(§3) (3) The solutions of compounds 3a to 13d were diluted in a twofold gradient to obtain cannabicyclol and cannabicyclol derivative solutions at concentrations of 40 μg/mL, 20 μg/mL, 10 μg/mL, 5 μg/mL, 2.5 μg/mL, 1.25 μg/mL, and 0.625 μg/mL, and 0.3125 μg/mL, respectively.
(§4) (4) Three glioblastoma stem cells (GSC-3, GSC-12, and GSC-18), three pancreatic cancer cell-derived stem cells (PANC-1-CSC, BXPC-3-CSC, and ASPC1-CSC), three liver cancer cell-derived stem cells (HepG2-CSC, MHCC97H-CSC, and SMMC7721-CSC), HEK-293T cells, 16 tumor cells (U251, U87, T98G, PANC1, BXPC3, ASPC1, HepG2, MHCC97H, SMMC7721, PC3, SKOV3, MDA-MB231, A549, HCT116, HEC-1B, MKN28), and differentiated glioblastoma stem cells (GSC-3diff and GSC-12diff) derived from GSC-3 and GSC-12 (all of the cells were provided by the Laboratory of Tumor Animal Model Preparation and Application Research, West China Hospital, Sichuan University) were inoculated into a 96-well plate at a concentration of 2×10^4 cells/well, and 100 μL of culture medium was then added to each well;
(§5) (5) 2) HEK-293T, GSC-3diff, GSC-12diff, and the 16 tumor cells were added with DMEM, 10% FBS, and 1% double antibody culture medium. Cancer stem cells (CSCs) were added with serum-free stem cell medium consisting of DMEM/F12, EGF (20 ng/mL), bFGF (20 ng/mL), B27 (1×), and 1% double antibody culture medium.
(§6) (6) Inoculated cells were put into a cell culture incubator for 24 hours, and after the cells were well adhered to the wall, the culture medium in the 96-well plate was discarded.
(§7) (7) 200 μL cannabicyclol and cannabicyclol derivatives solutions at different concentrations were added to the cultured cells.
(§8) (8) The experiment was set up with 3 replicates.
(§9) (9) The 96-well plate was placed in a cell culture incubator, and incubation was continued at 37° C. and 5% CO2 for 72 hours. Then, 100 μL of cannabicyclol and cannabicyclol derivative solution per well was discarded (100 μL of DMSO solvent was discarded for the control group), and 20 μL of LMTS (CellTiter AQueous Non-Radioactive Cell Proliferation Assay, #G3581) was mixed and continued to be placed in the cell incubator for 2 hours of incubation.
(§10) (10) The absorbance value at 490 nm was measured on an enzyme labeling apparatus, and the IC50 value was calculated.

[2] = system: U251; experiment: MTS cell viability assay, U251
Method: as §1, §2, §3, §4, §5, §6, §7, §8, §9, §10

[3] = MTS cell viability assay, HEK-293T (293T) normal cells; settings: human
Method: as §1, §2, §3, §4, §5, §6, §7, §8, §9, §10

[4] = primary viability screening, 72 hours, MTS, test concentration not stated
[5] = primary viability screening, 72 hours, MTS, test concentration not stated, read-out: Cell viability in 293T (%)
[6] = HEK-293T (293T) normal cells, primary viability screening, 72 hours, MTS, test concentration not stated, read-out: Cell viability in 293T (%)

Row | Compound | selective anti-glioma stem cell viability [1] | Cell viability in 3#-GSC (%) [1, 4] [%] | Cell viability in U251 (%) [2, 4] [%] | viability at 72 h [3, 5] [%] | Cell viability in 3#-GSC (%) ([1]; 72 h) | Cell viability in U251 (%) ([2]; human, 72 h) | viability at 72 h [3] [%] | viability at 72 h [3, 6] [%]
1 | CC12CCC3C1C(c1c(O)cccc1O2)C3(C)C (centres unmarked) [Compound 3b] | selective anti-glioma stem cell viability | 32 | 97 | 97 | – | – | – | –
2 | Cc1cc(O)c2c(c1)OC1(C)CCC3C1C2C3(C)C (centres unmarked) [Compound 3c] | – | – | – | – | ≥100 | 88 | ≥ 100 | –
3 | CCCc1cc(O)c2c(c1)OC1(C)CCC3C1C2C3(C)C (centres unmarked) [Compound 3d] | – | 40 | 71 | – | – | – | – | 91
4 | CCCCc1cc(O)c2c(c1)OC1(C)CCC3C1C2C3(C)C (centres unmarked) [Compound 3e] | – | 30 | 17 | – | – | – | – | 60
5 | CCCCCCc1cc(O)c2c(c1)OC1(C)CCC3C1C2C3(C)C (centres unmarked) [Compound 3f] | a certain degree of selective anti-glioma stem cell viability | 20 | 78 | – | – | – | – | 18
6 | CCCCCCCc1cc(O)c2c(c1)OC1(C)CCC3C1C2C3(C)C (centres unmarked) [Compound 3g] | – | 90 | 79 | – | – | – | – | 11
7 | CCCCCCCCc1cc(O)c2c(c1)OC1(C)CCC3C1C2C3(C)C (centres unmarked) [Compound 3h] | – | 87 | 75 | – | – | – | – | 16
8 | CCCCCCCCCCCCCc1cc(O)c2c(c1)OC1(C)CCC3C1C2C3(C)C (centres unmarked) [Compound 3i] | – | 33 | 79 | – | – | – | – | 8
9 | CC12CCC3C1C(c1c(O)cc(-c4ccccc4)cc1O2)C3(C)C (centres unmarked) [Compound 3k] | – | – | – | – | 52 | 15 | 45 | –
10 | Cc1ccc(-c2cc(O)c3c(c2)OC2(C)CCC4C2C3C4(C)C)cc1 (centres unmarked) [Compound 3l] | – | – | – | – | 51 | 45 | 62 | –
11 | Cc1cccc(-c2cc(O)c3c(c2)OC2(C)CCC4C2C3C4(C)C)c1 (centres unmarked) [Compound 3m] | weak selective anti-glioma stem cell viability | – | – | – | 42 | 90 | ≥ 100 | –
12 | Cc1ccccc1-c1cc(O)c2c(c1)OC1(C)CCC3C1C2C3(C)C (centres unmarked) [Compound 3n] | – | – | – | – | 41 | 17 | 50 | –
13 | Cc1cc(C)cc(-c2cc(O)c3c(c2)OC2(C)CCC4C2C3C4(C)C)c1 (centres unmarked) [Compound 3o] | – | – | – | – | 64 | 88 | 81 | –
14 | CC(C)(C)c1ccc(-c2cc(O)c3c(c2)OC2(C)CCC4C2C3C4(C)C)cc1 (centres unmarked) [Compound 3p] | weak selective anti-glioma stem cell viability | – | – | – | 67 | 97 | ≥ 100 | –
15 | COc1ccc(-c2cc(O)c3c(c2)OC2(C)CCC4C2C3C4(C)C)cc1 (centres unmarked) [Compound 3q] | – | – | – | – | 39 | 19 | 40 | –
16 | CC12CCC3C1C(c1c(O)cc(-c4ccc(F)cc4)cc1O2)C3(C)C (centres unmarked) [Compound 3r] | – | – | – | – | 43 | 76 | 45 | –

Row | Compound | selective anti-glioma stem cell viability [1] | Cell viability in 3#-GSC (%) [1, 4] [%] | Cell viability in U251 (%) [2, 4] [%] | viability at 72 h [3, 5] [%] | Cell viability in 3#-GSC (%) ([1]; 72 h) | Cell viability in U251 (%) ([2]; human, 72 h) | viability at 72 h [3] [%] | viability at 72 h [3, 6] [%]
17 | CC12CCC3C1C(c1c(O)cc(-c4ccc(Cl)cc4)cc1O2)C3(C)C (centres unmarked) [Compound 3s] | – | – | – | – | 49 | 91 | 64 | –
18 | CCCCCc1cc(O)c2c(c1)OC1(C)CCC3C(C)C2C31 (centres unmarked) [Compound 3u] | – | 30 | 72 | – | – | – | – | 78
19 | CCCCCc1cc(O)c2c(c1)OC1(C)CCC3C(CC)C2C31 (centres unmarked) [Compound 3v] | – | 30 | 71 | 79 | – | – | – | –
20 | CCCCCc1cc(O)c2c(c1)OC1(C)CCC3C(c4ccccc4)C2C31 (centres unmarked) [Compound 3x] | – | 70 | 77 | – | – | – | – | 97
21 | CCCCCc1cc(O)c2c(c1)OC1(C)CCC3C(C4CC4)C2C31 (centres unmarked) [Compound 3y] | – | 47 | 98 | – | – | – | – | ≥ 100
22 | C=CCOc1cc(CCCCC)cc2c1C1C3C(CCC3(C)O2)C1(C)C (centres unmarked) [Compound 7a] | – | ≥100 | 81 | – | – | – | – | 77
23 | CCCCCc1cc(OC)c2c(c1)OC1(C)CCC3C1C2C3(C)C (centres unmarked) [Compound 7b] | – | ≥100 | 91 | – | – | – | – | 95
24 | CCCCCc1cc(OCC)c2c(c1)OC1(C)CCC3C1C2C3(C)C (centres unmarked) [Compound 7c] | – | ≥100 | 80 | – | – | – | – | 79
25 | CCCCCc1cc(OCCC)c2c(c1)OC1(C)CCC3C1C2C3(C)C (centres unmarked) [Compound 7d] | – | ≥100 | 82 | – | – | – | – | 77
26 | C#CCOc1cc(CCCCC)cc2c1C1C3C(CCC3(C)O2)C1(C)C (centres unmarked) [Compound 7e] | – | ≥100 | 72 | – | – | – | – | 75
27 | CCCCCc1cc(OCC(=O)NCCc2cc3ccccc3[nH]2)c2c(c1)OC1(C)CCC3C1C2C3(C)C (centres unmarked) [Compound 7h] | – | 72 | ≥100 | – | – | – | – | 87
28 | CCCCCc1cc(OCc2cn(S(=O)(=O)c3ccc(C)cc3)nn2)c2c(c1)OC1(C)CCC3C1C2C3(C)C (centres unmarked) [Compound 7i] | – | 50 | 21 | – | – | – | – | 71
29 | CCCCCc1cc(OC(C)=O)c2c(c1)OC1(C)CCC3C1C2C3(C)C (centres unmarked) [Compound 9b] | both the viability and selectivity were maintained | 28 | 82 | – | – | – | – | 92
30 | CCCCCc1cc(OC(=O)Cc2ccc3ccccc3c2)c2c(c1)OC1(C)CCC3C1C2C3(C)C (centres unmarked) [Compound 9e] | – | ≥100 | ≥100 | – | – | – | – | ≥ 100
31 | C=CC(=O)Oc1cc(CCCCC)cc2c1C1C3C(CCC3(C)O2)C1(C)C (centres unmarked) [Compound 9f] | – | 41 | 64 | – | – | – | – | 35
32 | CCCCCc1cc(OC(=O)/C=C/c2ccccc2)c2c(c1)OC1(C)CCC3C1C2C3(C)C (centres unmarked) [Compound 9g] | – | ≥100 | ≥100 | – | – | – | – | ≥ 100
